*1 amine or outer side, *2 acyl side, *3 side chain or, on linkers, in order; H or OH if unused. Where a SMILES comes first, the peptide text is derived from it. Side-chain parts run from the residue outwards. [ ]: non-standard residue; d: D form. The star is where a group is joined. Tetrahydroisoquinolin(2-yl) = c1ccc2c(c1)CCN(*)C2; Pyrazinecarbonyl = O=C(c1cnccn1)*; Hyp = O=C(O)[C@@H]1C[C@@H](O)CN1; Abu = CC[C@H](N)C(=O)O; CO = O=C([*:1])[*:2]; Bn = c1ccc(C*)cc1
Columns and labels:
[1] = biological target: T1, Non-structural protein 4b (Hepacivirus hominis, UniProt F5B4I0); assay: Binding affinity to Hepatitis C virus genotype 1 NS4B assessed as inhibition constant
T1 sequence (F5B4I0 whole entry): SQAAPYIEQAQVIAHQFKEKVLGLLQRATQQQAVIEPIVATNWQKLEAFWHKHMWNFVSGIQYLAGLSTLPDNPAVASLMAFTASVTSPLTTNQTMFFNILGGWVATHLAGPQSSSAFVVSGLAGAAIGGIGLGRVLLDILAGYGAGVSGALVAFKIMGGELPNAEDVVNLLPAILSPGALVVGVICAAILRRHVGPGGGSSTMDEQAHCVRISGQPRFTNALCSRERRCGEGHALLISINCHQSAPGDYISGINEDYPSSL

[2] = biological target: Replicase polyprotein 1ab (Severe acute respiratory syndrome coronavirus 2, UniProt P0DTD1); assay: Inhibition of SARS-CoV-2 3CL protease by FRET assay
SARS-CoV-2 [3] = assay: Antiviral activity against SARS-CoV-2 infected in human Huh-7 cells assessed as reduction in viral growth; type: functional, organism-based; settings: Severe acute respiratory syndrome coronavirus 2, Huh-7
[4] = biological target: T1, Non-structural protein 4b; assay: Inhibition of Hepatitis C virus genotype 1a NS4B
[5] = biological target: T1, Non-structural protein 4b; assay: Binding affinity to full length Hepatitis C virus genotype 1b NS4B expressed in Escherichia coli assessed as inhibition constant
[6] = biological target: T1, Non-structural protein 4b; assay: Inhibition of full length Hepatitis C virus genotype 1b NS4B expressed in Escherichia coli
[7] = Inhibition of Hepatitis C virus NS3 protease; design: species or system Hepacivirus hominis
SARS-CoV-2 [8] = assay: Antiviral activity against SARS-CoV-2 infected in African green monkey Vero E6 cells assessed as reduction in viral replication measured after 48 hrs by Hoechst 33342 staining based analysis; type: functional, organism-based; settings: Severe acute respiratory syndrome coronavirus 2, Vero C1008, 48 h
[9] = Half life in Sprague-Dawley rat at 5 mg/kg, po by LC-MS/MS analysis; type: ADME, organism-based; settings: in vivo
[10] = biological target: T1, Non-structural protein 4b; assay: Binding affinity to Hepatitis C virus genotype 1a NS4B assessed as inhibition constant
[11] = Oral bioavailability in Beagle dog at 2 mg/kg; type: ADME, organism-based, Canis lupus familiaris; settings: in vivo
[12] = AUC (0 to infinity) in liver to plasma of Sprague-Dawley rat at 3 mg/kg,po; type: ADME, organism-based; settings: in vivo
[13] = Cmax in Beagle dog at 3 mg/kg, po and measured upto 24 hrs by LC-MS/MS analysis; type: ADME, organism-based, Canis lupus familiaris; settings: in vivo
[14] = Half life in Beagle dog at 5 mg/kg, po by LC-MS/MS analysis; type: ADME, organism-based, Canis lupus familiaris; settings: in vivo
[15] = Oral bioavailability in Sprague-Dawley rat; type: ADME, organism-based; settings: in vivo
[16] = Volume of distribution at steady state in Sprague-Dawley rat at 1 mg/kg, iv; type: ADME, organism-based; settings: in vivo, read-out: Vdss
[17] = Volume of distribution at steady state in Beagle dog at 0.5 mg/kg, iv and measured upto 24 hrs by LC-MS/MS analysis; type: ADME, organism-based, Canis lupus familiaris; settings: in vivo, read-out: Vdss
[18] = Cmax in Sprague-Dawley rat at 3 mg/kg, po and measured upto 24 hrs by LC-MS/MS analysis; type: ADME, organism-based; settings: in vivo
[19] = biological target: T1, Non-structural protein 4b; assay: Binding affinity to Hepatitis C virus genotype 3a NS4B assessed as inhibition constant
[20] = AUC in Sprague-Dawley rat plasma […] at 10 mg/kg, po administered via gavage by LC-MS/MS analysis; type: ADME, organism-based; settings: in vivo
[21] = Clearance in Beagle dog plasma at 0.5 mg/kg, iv and measured upto 24 hrs by LC-MS/MS analysis; type: ADME, organism-based, Canis lupus familiaris
[22] = Clearance in Sprague-Dawley rat at 2 mg/kg, iv by LC-MS/MS analysis; type: ADME, organism-based; settings: in vivo
[23] = biological target: T1, Non-structural protein 4b; assay: Inhibition of Hepatitis C virus genotype 3a NS4B
[24] = biological target: T1, Non-structural protein 4b; assay: Inhibition of Hepatitis C virus genotype 1b NS4B

Structure (SMILES): CCC[C@H](NC(=O)[C@@H]1C[C@@H](OC(=O)N2CCc3ccccc3C2)CN1C(=O)[C@@H](NC(=O)[C@@H](NC(=O)c1cnccn1)C(C)C)C(C)C)C(=O)C(=O)NC1CC1
- Ki [1]: 2300 nM

Structure (SMILES): C=C[C@@H]1C[C@]1(NC(=O)[C@@H]1C[C@@H](Oc2cc(-c3csc(NC(C)C)n3)nc3cc(OC)ccc23)CN1C(=O)[C@@H](NC(=O)OC1CCCC1)C(C)(C)C)P(=O)(O)O
- IC50 [2]: 0.9 nM

Structure (SMILES): C=C[C@@H]1C[C@]1(NC(=O)[C@@H]1C[C@@H](Oc2ncc(OC)c3ccccc23)CN1C(=O)[C@@H](NC(=O)OC(C)(C)C)C(C)(C)C)C(=O)NS(=O)(=O)C1CC1
- EC50 (SARS-CoV-2 [3]): 19 nM
- IC50 [4]: 7 nM

Structure (SMILES): CC[C@@H](C=O)NC(=O)[C@@H]1C[C@@H](OCc2ccccc2)CN1C(=O)[C@@H](NC(=O)[C@@H](NC(=O)c1cnccn1)C(C)C)C(C)C (Pyrazinecarbonyl-VV[Hyp](Bn)[Abu]-aldehyde)
- Ki [1]: 12000 nM

Structure (SMILES): C=C[C@H]1C[C@]1(NC(=O)[C@@H]1C[C@@H]2CN1C(=O)[C@H](C(C)(C)C)NC(=O)OCCC/C=C/c1cccc3c1CN(C3)C(=O)O2)C(=O)NS(=O)(=O)C1CC1
- Ki [5]: 0.05 nM
- IC50 [6]: 7 nM

Structure (SMILES): CC[C@@H](C=O)NC(=O)[C@@H]1C[C@@H](OC(=O)N2CCc3ccccc3C2)CN1C(=O)[C@@H](NC(=O)[C@@H](NC(=O)c1cnccn1)C(C)C)C(C)C (Pyrazinecarbonyl-VV[Hyp]([CO-Tetrahydroisoquinolin(2-yl)])[Abu]-aldehyde)
- Ki [1]: 890 nM

Structure (SMILES): C=C[C@@H]1C[C@]1(NC(=O)[C@@H]1C[C@@H](Oc2cc(-c3ccccc3)nc3cc(OC)ccc23)CN1C(=O)[C@@H](NC(=O)OC1CCCC1)C(C)(C)C)C(=O)O
- IC50 [6]: 14 nM

Structure (SMILES): COc1ccc2c(O[C@@H]3C[C@H]4C(=O)N[C@]5(C(=O)O)C[C@H]5/C=C\CCCCC[C@H](NC(=O)OC5CCCC5)C(=O)N4C3)cc(-c3csc(NC(C)C)n3)nc2c1
- IC50 [7]: 3000 nM

Structure (SMILES): C=C[C@@H]1C[C@]1(NC(=O)[C@@H]1C[C@@H](Oc2cc(-c3csc(C(=O)CC)n3)nc3c(C)c(OC)ccc23)CN1C(=O)[C@@H](NC(=O)OC1CCCC1)C(C)(C)C)C(=O)O
- IC50 [2]: 10 nM
- EC50 (SARS-CoV-2 [8]): 12 nM

Structure (SMILES): C=C[C@@H]1C[C@]1(NC(=O)[C@@H]1C[C@@H]2CN1C(=O)[C@H](C1CCCC1)NC(=O)O[C@@H]1CCC[C@H]1CCCCCn1c(nc3cc(OC)ccc3c1=O)O2)C(=O)NS(=O)(=O)C1(C)CC1 [MK-2748]
- half-life [9]: 1.9 h
- Ki [10]: 0.009 nM
- bioavailability [11]: 27%
- AUC [12]: 2420 µM·h
- Cmax [13]: 4400 nM
- half-life [14]: 2.5 h
- bioavailability [15]: 40%
- Vd [16]: 5 L/kg
- Vd [17]: 0.12 L/kg
- Cmax [18]: 490 nM
- Ki [19]: 1.2 nM
- IC50 [4]: 0.009 nM
- AUC [20]: 28.9 µM·h
- clearance [21]: 1 mL/min/kg
- clearance [22]: 88 mL/min/kg

Structure (SMILES): COc1ccc2c(O[C@@H]3C[C@H]4C(=O)N[C@]5(C(=O)O)C[C@H]5/C=C/CCCCC[C@H](NC(=O)OC(C)(C)C)C(=O)N4C3)cc(-c3ccccc3)nc2c1
- IC50 [7]: 11 nM

Structure (SMILES): CC[C@@H](C=O)NC(=O)[C@@H]1C[C@@H](OCc2ccccc2)CN1C(=O)[C@@H](NC(=O)[C@@H](NC(=O)[C@H](CC(=O)O)NC(=O)[C@H](CCC(=O)O)NC(C)=O)C(C)C)C(C)C (Ac-EDVV[Hyp](Bn)[Abu]-aldehyde)
- Ki [1]: 890 nM

Structure (SMILES): Cc1nc2ccccc2c2c1O[C@]1(CC2)C[C@H]2C(=O)N[C@]3(C(=O)NS(=O)(=O)C4(C)CC4)C[C@H]3/C=C/CCCCC[C@H](NC(=O)OC(C)(C)C)C(=O)N2C1
- IC50 [23]: 0.7 nM
- IC50 [24]: 0.013 nM

Structure (SMILES): C=C[C@@H]1C[C@]1(NC(=O)[C@@H]1C[C@]2(CCc3c(c(C)nc4ccccc34)O2)CN1C(=O)[C@@H](NC(=O)OC(C)(C)C)C(C)(C)C)C(=O)NS(=O)(=O)C1(C)CC1
- IC50 [23]: 5.7 nM
- IC50 [24]: 0.033 nM

Structure (SMILES): CCC[C@H](NC(=O)[C@@H]1C[C@@H](OCc2cccc3ccccc23)CN1C(=O)[C@@H](NC(=O)[C@@H](NC(=O)[C@@H](CC(=O)O)NC(=O)[C@H](CC(=O)O)NC(C)=O)C1CCCCC1)C(C)C)C(=O)O
- IC50 [7]: 27 nM

Structure (SMILES): COc1ccc2nc3c4c(c2c1)CC[C@]1(C[C@H]2C(=O)N[C@]5(C(=O)NS(=O)(=O)C6(C)CC6)C[C@H]5/C=C/CCCCC[C@H](NC(=O)O[C@@H]5CCC[C@H]5CCCCC3)C(=O)N2C1)O4
- IC50 [2]: < 0.01 nM
